Results on 1 molecule are retold here after US20260083122A1, “METHOD AND AGENT FOR INACTIVATING BACTERIA OR VIRUSES, AND ANTIVIRAL BASE MATERIAL USING SAME” (NISSAN MOTOR CO., LTD., priority 2022, published 2026).

SMILES strings stand for the structures.

The assay concerns the target S-RBD-His (Omicron) (SARS-CoV-2 B.1.1.529 (Omicron) Spike RBD Protein) (Severe acute respiratory syndrome coronavirus 2, UniProt P0DTC2, E484A/G339D/G446S/G496S/K417N/N440K/N501Y/Q493R/Q498R/S371L/S373P/S375F/S477N/T478K/Y505H).

As for `O=[N+]([O-])[O-].O=[N+]1C2CC3CC(C2)CC1C3` [AZADO-Oxo], the “shift of fluorescence peak (binding amount between spike protein and ACE2)” value is listed as “a certain inactivation effect was obtained”.
